Data set [1] deals with GPR6 receptor expressed in CHO-K1 cells (Homo sapiens (Human), UniProt P46095). Nature of the data set: In vitro inhibition of constitutive cAMP activity of GPR6 receptor (EC50). It is filed as cell-based. The conditions noted are these: CHO-K1 cells expressing GPR6.
Method: This cell-based assay measures the ability of test compounds to inhibit the constitutive cAMP activity of GPR6 receptor expressed in CHO-K1 cells. CHO cells are stably expressed with GPR6 receptor, whose expression is controlled by a tetracycline inducible element. The cells were cultured in medium containing F12K, 10% FBS, 1% Penn/Strep, 200 μg/mL Hygromycin. GPR6 receptor expression is induced for 20 hours with 2 μg/mL doxycycline (Sigma D9891) in growth media. After addition of doxycycline, the cells are plated at a density of 450-750 cells per well in 96-well half-volume black tissue culture plates (Costar) and placed in an incubator (37° C., 5% CO2) for 20 hours prior to cAMP assays.
Culture media is removed from the cells and they are washed with 50 μL/well of Ringer's Buffer (MgCl2 0.047 mg/mL, NaH2PO4 0.18 mg/mL, Na2HPO4 0.1 mg/mL, KCl 0.34 mg/mL, NaHCO31.26 mg/mL, D-glucose 1.8 mg/mL, NaCl 7 mg/mL; pH=7.4). The test compounds are suspended in DMSO, diluted in Ringer's Buffer containing 0.5% fatty acid free BSA plus 300 μM 3-isobutyl-1-methylxanthine (IBMX), and incubated on the cells for 45 minutes at 37° C. and 5% CO2. […] Then ULIGHT™-anti-cAMP solution from the LANCE® kit is added and incubated on a shaker at room temperature for 1 hour prior to homogeneous time resolved fluorescence (HTRF) detection in a PerkinElmer EnVision plate reader. […]
The next data set has as its target human hERG (Homo sapiens (Human), UniProt Q12809). The data set can be described thus: Inhibition of human hERG via automated whole cell patch clamp. It is filed as cell-based. The conditions noted are these: for IC50: CHO-K1 cells transfected with human hERG cDNA, patch clamp; for safety margin relative to inhibition of hERG: statement in words. The procedure: An automated whole cell patch-clamp system (QPATCH® 16) is used to record outward potassium currents from a single cell. The assay employs CHO-K1 (Chinese Hamster Ovary) cells stably transfected with human hERG cDNA. The cells are harvested by trypsinization and maintained in serum-free medium at room temperature before recording. The cells are washed and re-suspended in the extracellular solution before being applied to the automated patch-clamp sites. The test solutions are prepared in the aqueous extracellular solution (137 mM NaCl, 4 mM KCl, 1.8 mM CaCl2), 1 mM MgCl2, 10 mM D(+)-Glucose, 10 mM HEPES, pH adjusted to 7.4 with NaOH) on the day of patch-clamp assay. Seven concentrations (0.03, 0.1, 0.3, 1, 3, 10, and 30 μM) of the test compound are used to determine IC50. The aqueous intracellular solution contains 130 mM KCl, 10 mM NaCl, 1 mM MgCl2, 10 mM EGTA, 5 mM MgATP, and 10 mM HEPES (pH adjusted to 7.2 with KOH).
After whole cell configuration is achieved, the cell is held at −80 mV. A 50 ms pulse to −40 mV is delivered to measure the leaking current, which is subtracted from the tail current on-line. Then the cell is depolarized to +20 mV for 2 seconds, followed by a 1 second pulse to −40 mV to reveal the hERG tail current. This paradigm is delivered once every 5 seconds to monitor the current amplitude. The assay is conducted at room temperature. The extracellular solution (control) is applied first and the cell is stabilized in the solution for 5 minutes. Then the test compound is applied from low to high concentrations sequentially on the same cell. The cells are incubated with each test concentration for 5 minutes. A reference compound E-4031 (N-(4-(1-(2-(6-methylpyridin-2-yl)ethyl)piperidine-4-carbonyl)phenyl)methanesulfonamide) is tested concurrently at multiple concentrations to obtain an IC50 value. The percent inhibition of hERG channel is calculated by comparing the tail current amplitude before and after application of the compound (the current difference is normalized to the control).

The next data set deals with human GPR6 (Homo sapiens (Human), UniProt P46095). The conditions noted are these: membranes from CHO-K1 cells expressing human GPR6, 3H radioligand.
human GPR6, sequence (P46095 whole entry): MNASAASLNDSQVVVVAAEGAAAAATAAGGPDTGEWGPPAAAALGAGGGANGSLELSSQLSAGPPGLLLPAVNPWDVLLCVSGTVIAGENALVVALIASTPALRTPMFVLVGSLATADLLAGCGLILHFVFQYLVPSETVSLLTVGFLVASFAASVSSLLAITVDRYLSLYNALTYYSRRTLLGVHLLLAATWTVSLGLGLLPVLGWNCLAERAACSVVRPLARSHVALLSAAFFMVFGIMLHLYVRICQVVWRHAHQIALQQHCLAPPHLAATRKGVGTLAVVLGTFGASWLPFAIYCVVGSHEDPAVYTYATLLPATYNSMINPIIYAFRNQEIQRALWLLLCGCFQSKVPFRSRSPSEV
Another data set concerns 6-OHDA rat model. Nature of the data set: 6-Hydroxydopamine (6-OHDA) rat model of Parkinson's disease, locomotor activity. It is filed as in vivo. Here is the method:
Compounds that improve motor activity are considered promising as potential therapies for Parkinson's disease. Rats of the 6-OHDA model of Parkinson's disease received bilateral injections of 6-OHDA into the striatum and coordinates Anterior-Posterior (AP): Medial-Lateral (ML): Dorsal-Ventral (DV), 1±3, −5 mm relative to Bregma under anaesthesia. Rats were tested for locomotor activity at least 28 days later.
Locomotor activity was measured in an open field arena covered in an array of infrared beams. Beam breaks by the animals were processed using AMLOGGER software to monitor activity.

The next data set has as its system conscious beagle dogs. Nature of the data set: Effects on the cardiovascular system using telemetry in conscious beagle dogs. It is filed as in vivo, dog. The conditions noted are these: single oral gavage doses 30, 100 and 300 mg/kg, compared to vehicle. The source says:
The beagle dogs are equipped with telemetry devices from DSI PHYSIOTEL® Digital L21 transmitter implants according to the appropriate Charles River Laboratories, Montreal, QC Standard Operating Procedure (TB 12-04-06). The biopotential leads are placed in a modified lead II configuration. A minimum acclimation period of 6 days is allowed between animal arrival and the start of the surgical implantation of the telemetry devices in order to accustom the animals to the laboratory environment. A minimum recovery period of 4 weeks is allowed between surgeries and the start of treatment. […]
The parameters monitored include: heart rate derived from blood pressure, left ventricular pressure (LVP), and electrocardiogram waveforms; LVP (peak systolic and end-diastolic LVP and max positive/negative dP/dt values); electrocardiogram (PR interval (PR), RR variability (RR″), QRS complex (QRS), QT intervals, and QTcv calculated using the Van de Water equation QTcv=QT−87(60/HR−1)); and body temperature.
Marking of ECG segments is conducted using ECG Pattern Recognition software. A library for each animal is constructed of representative cycles from both the day and night cycle and is applied across monitoring occasions to ensure appropriate marking for quantitative assessments, in accordance with the appropriate Charles River Laboratories, Montreal, QC. […]

human hERG, sequence (Q12809 whole entry): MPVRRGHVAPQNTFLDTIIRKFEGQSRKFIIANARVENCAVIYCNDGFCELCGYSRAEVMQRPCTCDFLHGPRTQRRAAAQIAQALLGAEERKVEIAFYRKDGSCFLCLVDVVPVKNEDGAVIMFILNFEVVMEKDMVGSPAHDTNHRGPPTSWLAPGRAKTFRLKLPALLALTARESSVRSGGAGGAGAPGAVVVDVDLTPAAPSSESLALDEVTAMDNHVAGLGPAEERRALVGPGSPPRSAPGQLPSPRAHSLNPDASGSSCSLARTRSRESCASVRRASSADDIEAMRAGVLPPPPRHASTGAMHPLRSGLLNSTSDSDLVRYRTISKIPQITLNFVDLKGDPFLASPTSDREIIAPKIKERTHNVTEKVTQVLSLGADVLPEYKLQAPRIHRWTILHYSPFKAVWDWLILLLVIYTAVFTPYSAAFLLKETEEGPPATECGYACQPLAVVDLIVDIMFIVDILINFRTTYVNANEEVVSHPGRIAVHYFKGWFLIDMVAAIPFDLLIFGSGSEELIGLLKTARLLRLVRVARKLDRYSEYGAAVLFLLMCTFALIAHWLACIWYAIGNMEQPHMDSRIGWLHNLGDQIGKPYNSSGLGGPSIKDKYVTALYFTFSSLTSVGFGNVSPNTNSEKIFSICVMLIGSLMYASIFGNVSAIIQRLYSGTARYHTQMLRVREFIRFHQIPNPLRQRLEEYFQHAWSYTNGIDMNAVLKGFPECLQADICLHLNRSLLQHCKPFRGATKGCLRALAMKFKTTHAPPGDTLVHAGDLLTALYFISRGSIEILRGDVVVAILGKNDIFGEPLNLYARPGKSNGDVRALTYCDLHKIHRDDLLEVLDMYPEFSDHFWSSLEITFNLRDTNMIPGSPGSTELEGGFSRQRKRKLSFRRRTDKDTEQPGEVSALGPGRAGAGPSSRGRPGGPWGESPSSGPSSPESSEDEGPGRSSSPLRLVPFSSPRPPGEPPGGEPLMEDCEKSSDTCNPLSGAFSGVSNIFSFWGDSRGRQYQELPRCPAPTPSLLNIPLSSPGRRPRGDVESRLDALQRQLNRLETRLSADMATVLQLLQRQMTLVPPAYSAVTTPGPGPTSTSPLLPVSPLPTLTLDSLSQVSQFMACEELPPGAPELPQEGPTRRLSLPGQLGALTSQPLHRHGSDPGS
GPR6 receptor expressed in CHO-K1 cells, sequence (P46095 whole entry): as the sequence (P46095 whole entry) above
Method for human GPR6: A competition binding assay using a filtration-based format is used to study the binding characteristics of GPR6 inverse agonists. The method employs membranes prepared from CHO-K1 cells expressing human GPR6 cDNA driven by a doxycycline inducible promoter. Assay ready 96 well plates (651201, Greiner, USA) containing serial dilutions of test compounds (1 μL of test ligand/well) are prepared in DMSO using liquid handlers (5 μM, final assay top concentration). Assay buffer (50 mM Tris, pH 7.4, 50 mM NaCl, 6 mM MgCl2, fatty acid free 0.1% BSA, 1:100 proteinase inhibitor cocktail, Sigma USA) is added (39 μL/well) and the plates are mixed on a plate shaker for 10 minutes. GPR6-specific ^3H radioligand is prepared in assay buffer and is added to each well (40 μL, 2.4 nM final assay concentration).
To initiate the binding reactions, 40 μL of total membranes obtained from cells expressing human GPR6 receptors is added. The membranes are prepared in assay buffer and added per well to 15 μg/well final assay concentration. […] Scintillator sheet (1450-411, PerkinElmer, USA) is melted on filters and heat-sealed before CPM/well were quantified in MICROBETA® Trilux instrument (PerkinElmer, USA). […] The IC50 and Ki values are calculated using non-linear regression analysis in Prism (GraphPad, USA). Kd values are determined in standard radioligand saturation experiments.

Usually pEC50 stands for −log10 of the EC50, conventionally taken in molar units. High values mean a low EC50, low ones a high EC50. As usually defined, the IC50 is the concentration at which inhibition is half-maximal. Broadly, the Ki is the dissociation constant of the complex between target and ligand, obtained from inhibition or displacement. With `CC(=O)N1CCc2nc(N3CCC(Oc4ccc(F)cc4F)CC3)c(N[C@H]3CCOC3)nc2C1` [Compound A, (S)-1-(2-(4-(2,4-difluorophenoxy)piperidin-1-yl)-3-((tetrahydrofuran-3-yl)amino)-7,8-dihydropyrido[3,4-b]pyrazin-6(5H)-yl)ethan-1-one, reference compound], the pEC50 in data set [1] came to 7.2. In addition, at human hERG, the IC50 was determined as 505 nM and the “safety margin relative to inhibition of hERG” value is on record as “suboptimal safety margin”. This molecule also returned a Ki at human GPR6 of 6 nM.

For the molecule `CC(=O)N1CCc2nc(N3CCC(Oc4ccc(F)cc4F)CC3)c(N[C@@H]3CCOC3)nc2C1` [Formula 1, (R)-1-(2-(4-(2,4-difluorophenoxy)piperidin-1-yl)-3-((tetrahydrofuran-3-yl)amino)-7,8-dihydropyrido[3,4-b]pyrazin-6(5H)-yl)ethan-1-one], in the data set on 6-OHDA rat model (5 mg/kg and 10 mg/kg, compared to vehicle, after 50 minutes, FIG. 1), the locomotor activity result was “dose dependent improvement in locomotor activity”. Also, the locomotor activity result with 6-OHDA rat model (10 mg/kg dose) is given as “significant increase in activity”. Further, the pEC50 in data set [1] came out at 7.2. Also, at human hERG, the IC50 came to 1970 nM and the “safety margin relative to inhibition of hERG” value was “improved SM-free”. In addition, the “hERG inhibition potency compared with Compound A” value at human hERG (comparison in words) is “significantly less potent inhibitor of hERG than Compound A”. At human GPR6, this molecule returned a Ki of 5.5 nM. In addition, the “arterial blood pressures, contractility, P-R interval, QRS complex, QT interval durations” value in the data set with conscious beagle dogs was “No changes are observed”.
